In US20170290820A1, “METHODS AND COMPOSITIONS FOR TREATING BETA-THALASSEMIA AND SICKLE CELL DISEASE” (Academia Sinica, priority 2013, published 2017):
Structures can show the parent of a compound that is named as a salt.

Columns and labels:
[1] = system: primary human erythroid cells; assay: AlamarBlue cell viability / proliferation assay; conditions: Table 1a; concentration reducing proliferation rate of primary human erythroid cells by 50%, 3 days

SMILES	melting point [°C]	IC50 [1] [µM]
CN(C)CCN1C(=O)c2cccc3c(Cl)ccc(c23)C1=O (as salt: hydrochloride) [Compound B4, N-(2-dimethylamino-ethyl)-4-chloro-1,8-naphthalimide hydrochloride]	> 280	–
CN(C)CCCN1C(=O)c2cccc3c(N)ccc(c23)C1=O (as salt: hydrochloride) [Compound E3, N-(3-dimethylamino-propyl)-4-amino-1,8-naphthalimide hydrochloride]	> 280	–
CN(C)CCN1C(=O)c2cccc3cccc(c23)C1O (stereo not shown) [BO-2476, 2-(2-(Dimethylamino)ethyl)-3-hydroxy-2,3-dihydro-1H-benzo[de]isoquinolin-1-one]	129 to 130	–
CC(=O)Nc1ccc2c3c(cccc13)C(=O)N(CCN(C)C)C2=O [BO-2559, N-(2-(2-(Dimethylamino)ethyl)-1,3-dioxo-2,3-dihydro-1H-benzo[de]isoquinolin-6-yl)acetamide]	278 to 279	–
CN(C)CCN1Cc2cccc3c(N)ccc(c23)C1 [BO-2560, 2-(2-(Dimethylamino)ethyl)-2,3-dihydro-1H-benzo[de]isoquinolin-6-amine]	253 to 254	–
CN(C)CCN1Cc2cccc3c(N(C)C)ccc(c23)C1 [BO-2563, 2-(2-(Dimethylamino)ethyl)-N,N-dimethyl-2,3-dihydro-1H-benzo[de]isoquinolin-6-amine]	251 to 252	–
CCNc1ccc2c3c(cccc13)C(=O)N(CCN(C)C)C2=O [BO-2564, 2-(2-(Dimethylamino)ethyl)-6-(ethylamino)-1H-benzo[de]isoquinoline-1,3(2H)-dione]	253 to 254	–
CCNc1ccc2c3c(cccc13)CN(CCN(C)C)C2 [BO-2565, 2-(2-(dimethylamino)ethyl)-N-ethyl-2,3-dihydro-1H-benzo[de]isoquinolin-6-amine]	239 to 240	–
O=C1c2cccc3c([N+](=O)[O-])ccc(c23)C(=O)N1c1ccc(Cl)c(Cl)c1 [Compound A3, N-(3,4-Dichloro-phenyl)-4-nitro-1,8-naphthalimide]	> 280	5.2
COc1cccc(N2C(=O)c3cccc4c([N+](=O)[O-])ccc(c34)C2=O)c1 [Compound A4, N-(3-Methoxy-phenyl)-4-nitro-1,8-naphthalimide]	> 280	21
O=C(O)CCCc1ccc(N2C(=O)c3cccc4c([N+](=O)[O-])ccc(c34)C2=O)cc1 [Compound A5, N-(4-Butyric acid-phenyl)-4-nitro-1,8-naphthalimide]	254.5 to 256	6.7
O=C1c2cccc3c(Cl)ccc(c23)C(=O)N1c1ccccc1 [Compound A6, N-Phenyl-4-chloro-1,8-naphthalimide]	263 to 265.5	> 100
COc1cccc(N2C(=O)c3cccc4c(Cl)ccc(c34)C2=O)c1 [Compound A7, N-(3-Methoxy-phenyl)-4-chloro-1,8-naphthalimide]	> 280	> 100
O=C1c2cccc3c(Cl)ccc(c23)C(=O)N1c1cccc(C(F)(F)F)c1 [Compound A8, N-(3-Trifluoromethyl-phenyl)-4-chloro-1,8-naphthalimide]	278 to 279	> 100
O=C1c2cccc3c(Cl)ccc(c23)C(=O)N1c1cccc(Br)c1 [Compound A9, N-(3-Bromo-phenyl)-4-chloro-1,8-naphthalimide]	> 280	> 100
CN(C)CCCN1C(=O)c2cccc3c([N+](=O)[O-])ccc(c23)C1=O [Compound B3, N-(3-Dimethylamino-propyl)-4-nitro-1,8-naphthalimide]	–	2.3
CCN1C(=O)c2cccc3cccc(c23)C1=O [Compound C1, N-Ethyl-1,8-naphthalimide]	–	> 100
CN1C(=O)c2cccc3c(Cl)ccc(c23)C1=O [Compound C4, N-Methyl-4-chloro-1,8-naphthalimide]	–	> 100
